What was measured:
[1] = system: cerebral-cortical mixed neuronal cells and hippocampal neurons; experiment: NMDA excitotoxicity of neurons in culture, cell viability; type: cell-based, rat; conditions: for synergy with NPD1 in neuroprotection against NMDA excitotoxicity: ELV 200 nM with NPD1 100 nM; for synergy with NPD1 in neuroprotection against NMDA excitotoxicity / neuroprotection against NMDA excitotoxicity (Hoechst): NMDA 100 μM; for synergy with NPD1 in neuroprotection against NMDA excitotoxicity / NMDA-induced neuronal death / neuroprotection against NMDA excitotoxicity (Hoechst): 12 h; for NMDA-induced neuronal death: ELV (Na or Me) 200 nM or 500 nM added along with NMDA 25, 50 or 100 μM; for neuroprotection with MK801 and NPD1 added together: compared with ELV-N32-Na or ELV-N32-Me alone; for neuroprotection against NMDA excitotoxicity (Hoechst): 500 nM, DIV 12
Description: (§1) Primary cultures of cortical and hippocampal neurons were harvested from 18-day-old embryos (E18) taken from timed-pregnant, two-month-old Sprague-Dawley (SD) rats (Charles River Lab., Wilmington, Mass.). Briefly, timed-pregnant SD rats were euthanized and embryos were collected in sterile conditions. Embryonic brains were dissected out by forceps on ice and placed in a petri dish containing ice-cold Hank's Balanced Salt Solution (HBSS) (GIBCO). Meninges were removed under a dissecting microscope and cortical tissues were chopped into small pieces with micro-spring scissors. These tissues were transferred to 15 ml tubes containing trypsin-EDTA (0.025% in HBSS) and DNase I. The tubes were incubated in 37° C. chamber for 15 mins and were agitated every 5 mins. After stopping the trypsinization with 5 ml 10% FBS, these tissues were triturated 15 times with a fire polished Pasteur pipet. Cell clumps were left to settle for 2 mins and the supernatant was transferred to a 15 ml Eppendorf tube. The supernatant was filtered through a 70 μm pore-sized filter (Corning cell strainer) and centrifuged for 5 mins at 1000 rpm. The cells were then resuspended in Neurobasal medium (GIBCO) containing 2% B27 (GIBCO) and 2% N2 (GIBCO) supplements, along with 0.5 mM glutamine, 50 U/ml penicillin/streptomycin.
(§2) Cells were counted using a Neubauer hemocytometer. 1×10^6 cells were seeded on poly-D-lysine-coated 12 well cell culture dish (CORNING) and cultured in incubator (37° C., 5% CO2). Culture medium was first replaced after 24 h, then half of the medium was replaced with fresh medium every three days. As a result, approximately, 90% purity of neurons was obtained as determined by class-III-β tubulin, GFAP and Hoechst 33258 staining. Cells were maintained in culture for about 2 weeks until they were exposed to uncompensated oxidative stress, OGD, or NMDA excitotoxicity.
After 90 mins of OGD exposure, cells were returned to the original medium (Neurobasal medium (GIBCO) containing 2% B27 (GIBCO) and 2% N2 (GIBCO) supplements, along with 0.5 mM glutamine, 50 U/ml penicillin/streptomycin) and placed in a normoxic chamber (37° C., 5% CO2) for 2 h. Then the medium was changed with medium containing either ELV-N32 or ELV-N34 [500 nM] and maintained in a normoxic chamber (37° C., 5% CO2) for 12 h, after which cells were sampled and assayed for cell viability using different methods as previously described (25-28). Cerebral cortical mixed neuronal cells or hippocampal cells in culture were exposed to either NMDA or uncompensated oxidative stress (UOS) for 12 h by addition of either NMDA (25 μM, 50 μM, or 100 μM) concentration or by the addition of TNFα (10 ng/mL) and H2O2 (50 μM, 100 μM, or 200 μM). Cell viability and neuroprotection in the presence of ELV-N32, ELV-N34, 32:6, or 34:6 were assayed after 12 h.
Cells were washed with 1× Dulbecco's Phosphate Buffered Saline (DPBS) containing no calcium or magnesium (GIBCO) and fixed for 10 mins using ice-cold 4% paraformaldehyde (PFA) followed by 15 mins incubation in 100% methanol. Cells were washed with 1× Phosphate Buffered Saline (PBS) pH 7.4 (GIBCO) and incubated in PBS containing 20 μM Hoechst 33258 (Molecular Probes) for 20 mins. Cells were then washed 3 times with 1×PBS and stored in 1×PBS at 4° C. until they were imaged for microscopy.
One 4×4 tile mosaic was acquired from the center of each well using a Zeiss 510 Meta laser confocal microscope and LSM 510 Meta software. Images were imported into image analysis software ImageJ (National Institutes of Health, Bethesda, Md.) and batch processed using custom macros. An Otsu auto threshold was applied to each image of Hoechst-stained nuclei, and the area of each detected object was recorded. Objects with areas <10 μm^2 were excluded from analysis. To estimate percentage non-pyknotic nuclei, a size cutoff value was chosen above which objects were assumed to be non-pyknotic. […]

[2] = system: cerebral-cortical mixed neuronal cells; experiment: Uncompensated oxidative stress (TNFα plus H2O2) of neurons in culture; type: cell-based, rat; conditions: 200 nM; TNFα 10 ng/mL and H2O2 (50, 100 or 200 μM), 12 h
Description: as §1
as §2, with “Cells were maintained in culture for about 2 weeks until they were exposed to uncompensated oxidative stress, OGD, or NMDA excitotoxicity.” left out
One 4×4 tile mosaic was acquired from the center of each well using a Zeiss 510 Meta laser confocal microscope and LSM 510 Meta software. […] An Otsu auto threshold was applied to each image of Hoechst-stained nuclei, and the area of each detected object was recorded. […]

Compound	neuroprotection against uncompensated oxidative stress [2]	synergy with NPD1 in neuroprotection against NMDA excitotoxicity [1]	NMDA-induced neuronal death [1]	neuroprotection with MK801 and NPD1 added together [1]	neuroprotection against NMDA excitotoxicity (Hoechst) [1]	also measured
CC/C=C\C/C=C\C/C=C\C/C=C\C/C=C\C/C=C\CCCCCCCCCCCCC(=O)O [32:6n3, (14Z,17Z,20Z,23Z,26Z,29Z)-dotriaconta-14,17,20,23,26,29-hexaenoic acid]	–	–	–	–	–	NMDA excitotoxicity ([1]; precursor at 250 nM): attenuate NMDA excitotoxicity
CC/C=C\C/C=C\C/C=C\C/C=C\C/C=C\C/C=C\CCCCCCCCCCCCCCC(=O)O [34:6n3, (16Z,19Z,22Z,25Z,28Z,31Z)-tetratriaconta-16,19,22,25,28,31-hexaenoic acid]	–	–	–	–	–	NMDA receptor-mediated excitotoxicity ([1]; precursor at 500 nM): attenuates NMDA receptor-mediated excitotoxicity
CC/C=C\C[C@H](O)\C=C/C=C/C=C/[C@H](O)C/C=C\C/C=C\CCCCCCCCCCCCC(=O)OC [ELV-N32-Me, methyl (14Z,17Z,20R,21E,23E,25Z,27S,29Z)-20,27-dihydroxydotriaconta-14,17,21,23,25,29-hexaenoate]	evoked neuroprotection	showed synergy	compensated for	improved the neuroprotection	–	relative potency of the combination with NPD1 ([1]; ELV-N32-Me plus NPD1 versus ELV-N32-Na plus NPD1): more potent
CC/C=C\C[C@H](O)\C=C/C=C/C=C/[C@H](O)C/C=C\C/C=C\CCCCCCCCCCCCC(=O)[O-].[Na+] [ELV-N32-Na, sodium (14Z,17Z,20R,21E,23E,25Z,27S,29Z)-20,27-dihydroxydotriaconta-14,17,21,23,25,29-hexaenoate]	evoked neuroprotection	showed synergy	compensated for	improved the neuroprotection	neuroprotection elicited	–
CC/C=C\C[C@H](O)\C=C/C=C/C=C/[C@H](O)C/C=C\C/C=C\CCCCCCCCCCCCCCC(=O)OC [ELV-N34-Me, methyl (16Z,19Z,22R,23E,25E,27Z,29S,31Z)-22,29-dihydroxytetratriaconta-16,19,23,25,27,31-hexaenoate]	–	–	–	–	neuroprotection elicited	–
CC/C=C\C[C@H](O)\C=C/C=C/C=C/[C@H](O)C/C=C\C/C=C\CCCCCCCCCCCCCCC(=O)[O-].[Na+] [ELV-N34-Na, sodium (16Z,19Z,22R,23E,25E,27Z,29S,31Z)-22,29-dihydroxytetratriaconta-16,19,23,25,27,31-hexaenoate]	neuroprotection elicited	–	–	–	–	–
